Data taken from EP2345639A1, “Cyclic hydroxylamine derivatives, their preparation and use as antioxidants” (ABIOGEN PHARMA S.p.A., priority 2009, dated 2011).
Where two headings read alike, the source gives them in different places.

Assays:
[1] = system: doxorubicin-induced cerebral oxidative stress in mice; experiment: In vivo assay of cerebral oxidative stress induced in mice by doxorubicin (model and oxidized animals); details: for inhibition in vivo at 50 mg/kg / change in vivo at 50 mg/kg: Mus musculus; for inhibition in vivo at 50 mg/kg: overall, read-out: inhibition of the doxorubicin effect; for change in vivo at 50 mg/kg / mean % effect relative to doxorubicin alone, all parameters (Vehicle): oxidized mice; for mean % effect relative to doxorubicin alone, all parameters (Vehicle): computed as a function of the vehicle
Procedure: The assay was carried out on compounds (1)-(5) and (7)-(11) and on edaravone (E) as comparative compound.
10 mice were used for each treatment group. For each compound 50 mg/kg were administered intraperitoneally (IP) for three consecutive days (day 0, 1 and 2); half the animals (5) also received IP 16.7 mg/kg of doxorubicin immediately after the first treatment (day 0). On the day after the last administration (day 3) the animals were killed by neck dislocation and the brains were removed, weighed and frozen in liquid nitrogen.
For the analyses of oxidative stress, 100 mg/ml of brain homogenate was prepared in HEB^(*) buffer (pH 7.4 EDTA/HEPES^(**)) containing a mixture of enzyme inhibitors (Leupeptin, Pepstatin, Aprotinin, BHA).
The evaluation parameters were: • BrW/BWi: ratio between final brain weight and initial body weight (day 0); • Prot. Hmg: total proteins in the homogenate (BCA method, i.e. bicinchoninic acid); • Prot. Ox: oxidized proteins in the Hmg by means of a colorimetric method using dinitrophenylhydrazone (DNPH); • GSH: reduced glutathione in the supernatant (sn) of the Hmg, obtained after precipitation with metaphosphoric acid (MPA), by means of a colorimetric method using dithiodinitrobenzene (DTNB); • CAT: catalase in the Hmg by a colorimetric method using potassium dichromate; • SOD: superoxide dismutase by a colorimetric method using SOD Reagent (xanthine, EDTA, nitroblue tetrazole, Na2CO3, BSA, i.e. bovine serum albumin); • GST: glutathione S-transferase in the supernatant by a colorimetric method using chlorodinitrobenzene (CDNB) and GSH; and • GPx: glutathione peroxidase in the supernatant after addition of GSH and t-BuOOH, heating and precipitation with MPA; followed by GSH method with DTNB. The assay was performed on the compounds (1)-(5) and (7)-(11) and on edaravone (E), as comparative compound.
The mean effect (n=5 experiments) of doxorubicin (D), i.e. "oxidized" animal, relative to the vehicle (V), the vehicle representing the healthy animal.
All the parameters, with the exclusion of Brain/BWi and Prot. Hmg, were normalized for total Hmg proteins. The D value standard deviations and the % incidence relative to V are given in italics.
The effect of the tested compounds on the "oxidized" animals was given as % inhibition relative to the percentage change due to doxorubicin alone. The effect of the compounds on the oxidized animals can be expressed both as a function of the values of the vehicle (healthy, vehicle only) and as a function of the value of its own (healthy, compound only): • Vehicle: percentage [(Compound+D)/V]x100/[(V+D)/V]x100 • Its own: percentage [(Compound+D)/Compound]x100/[(V+D)/V]x100
Again in this case, the mean % effect relative to doxorubicin alone could be given for all the parameters simultaneously, as an approximate index of effectiveness on the cerebral oxidative state of the animal.

[2] = Brain-to-plasma concentration ratio in mice; type: in vivo, Female CD-1 mice; details: female, CD-1, mouse, ip, 25 mg/kg intraperitoneal, area under the curve of brain and plasma concentrations 0 to 60 minutes, read-out: B/P ratio
Procedure: The ability of the compounds of the invention to penetrate the brain was investigated by measuring their brain/plasma (B/P) ratio in mice following intraperitoneal administration.
Female CD-1 mice were used (n=3 for each time period) and received the compounds of the invention by intraperitoneal administration, in 25 mg/kg doses in a 0.5% NaHCO3 buffer (pH 8.3). At predefined intervals following said administration, i.e. 5, 15, 30 and 60 minutes, the mice were killed and both plasma and total brain tissue were collected.
Specifically, after anaesthesia with ether, the animals were bled by blood withdrawal from the abdominal aorta then immediately decapitated. The blood samples were collected into plasma separator tubes containing Li-Heparin as anticoagulant and centrifuged. The resulting plasma was then stored at -20 °C. The brain was rapidly removed from the cranium and weighed, subsequently frozen and stored at -20 °C before treatment by homogenization and HPLC analysis.
The plasma was thawed and mixed with an equal volume of the extraction solution.
1 ml of solution was then extracted by adding 20 µl of 70% HClO4, then centrifuged at 15,500g for 5 minutes and injected into the HPLC.
Each brain was thawed and homogenized with the extraction solution to provide a final composition of 4 ml/1g of tissue by means of an Ultra-Turrax blender and sonicated for 5 minutes. After centrifugation of the homogenate at 15,500g for 5 minutes, the resulting solution was treated with HClO4, as indicated for the plasma. Specific chromatographic conditions had been developed for each analyte, the calibration curve being constructed for plasma and brain homogenate.

[3] = system: C6 cells (rat glioma) and BAEC cells (bovine aortic endothelial); experiment: In vitro inhibition of CHP-induced oxidative stress (DCF fluorescence); type: cell-based; details: 500 µM CHP, 4, 20, 100 and 500 µM compound, 30 minutes; depending on the concentrations and cell line
Procedure: The method used was essentially the one reported by Rüweler M. et al. ("Inhibition of peroxide-induced radical generation by plant polyphenols in C6 astroglioma cells" (2008) Toxicol in vitro 22, 1377-81), with a few minor modifications.
The cells were seeded in phenol-red free DMEM (Sigma Aldrich) into 96-well plates with 5% FBS and 20 mM HEPES at a density of 40,000 cells/well. After 48 hours, the medium was substituted by HBSS (Hanks' Balanced Salt Solution, Sigma) containing 10 µM of dihydro-2',7'-dichlorofluorescein diacetate (H2DCF-DA, Sigma Aldrich) and incubated in darkness for 30 minutes at 37 °C, in order to load the cells with fluorescent dye. H2DCF-DA was hydrolyzed enzymatically by the intracellular esterases to form non-fluorescent H2DCF, which was then rapidly oxidized to form 2',7'-dichlorofluorescein (DCF) being highly fluorescent in the presence of reactive species (RS). The intensity of DCF fluorescence is directly proportional to the amount of RS formed.
After carrying out two washes, the cells were exposed to 500 µM of CHP and various concentrations (4, 20, 100 and 500 µM) of the compounds of the invention for 30 minutes at 37 °C. Fluorescence was then measured, after cell washing, by a microplate reader at an excitation wavelength of 485 nm and an emission wavelength of 535 nm.
Six wells per plate per concentration of test composition (compound + CHP) and per control (HBSS without CHP) were measured and 12 wells were used as reference for CHP-induced stress. In addition, each 96-well plate contained 6 wells that received the highest concentration of the tested compounds without CHP, to investigate whether the compounds of the invention alone were able to induce cellular radical formation.
When using this assay, it should be borne in mind that DCF fluorescence is a generalized indicator of oxidative stress rather than of any particular reactive species, i.e. it is not a direct assay for H2O2 or other reactive species (Halliwell B, Whiteman M. (2004) "Measuring reactive species and oxidative damage in vivo and in cell culture: how should you do it and what do the results mean?" Br. J. Pharmacol. 142 231-255). Therefore, when an increase in DCF fluorescence induced by exposure of cells to CHP was measured, as was carried out in these assays, it was not possible to deduce which reactive species was responsible. Inhibition of CHP-induced fluorescence was evaluated by means of different concentrations of the compounds of the invention and comparative compounds such as Trolox and edaravone.

[4] = ip, compared with its own vehicle
[5] = ip, with respect to the vehicle
[6] = ip, % inhibition relative to change due to doxorubicin alone, vs its own, read-out: Brain/BWi its own
[7] = ip, % inhibition relative to change due to doxorubicin alone, vs its own, read-out: CAT/pr its own
[8] = ip, % inhibition relative to change due to doxorubicin alone, vs its own, read-out: GPX/pr its own
[9] = ip, % inhibition relative to change due to doxorubicin alone, vs its own, read-out: GSH/pr its own
[10] = ip, % inhibition relative to change due to doxorubicin alone, vs its own, read-out: GST/pr its own
[11] = ip, % inhibition relative to change due to doxorubicin alone, vs its own, read-out: Prot. Hmg its own
[12] = ip, % inhibition relative to change due to doxorubicin alone, vs its own, read-out: Prot. Ox/pr its own
[13] = ip, % inhibition relative to change due to doxorubicin alone, vs its own, read-out: SOD/pr its own
[14] = ip, % inhibition relative to change due to doxorubicin alone, vs vehicle, read-out: Brain/BWi vehicle
[15] = ip, % inhibition relative to change due to doxorubicin alone, vs vehicle, read-out: CAT/pr vehicle
[16] = ip, % inhibition relative to change due to doxorubicin alone, vs vehicle, read-out: GPX/pr vehicle
[17] = ip, % inhibition relative to change due to doxorubicin alone, vs vehicle, read-out: GSH/pr vehicle
[18] = ip, % inhibition relative to change due to doxorubicin alone, vs vehicle, read-out: GST/pr vehicle
[19] = ip, % inhibition relative to change due to doxorubicin alone, vs vehicle, read-out: Prot. Hmg vehicle
[20] = ip, % inhibition relative to change due to doxorubicin alone, vs vehicle, read-out: Prot. Ox/pr vehicle
[21] = ip, % inhibition relative to change due to doxorubicin alone, vs vehicle, read-out: SOD/pr vehicle
[22] = 50 mg/kg IP x3 days + doxorubicin, computed as a function of its own (healthy, compound only), read-out: mean % effect relative to doxorubicin alone, all parameters (Its own)
[23] = 50 mg/kg IP x3 days + doxorubicin

Compound	inhibition in vivo at 50 mg/kg [1, 4]	change in vivo at 50 mg/kg [1, 6]	change in vivo at 50 mg/kg [1, 7]	change in vivo at 50 mg/kg [1, 8]	change in vivo at 50 mg/kg [1, 9]	change in vivo at 50 mg/kg [1, 10]	change in vivo at 50 mg/kg [1, 11]	change in vivo at 50 mg/kg [1, 12]	change in vivo at 50 mg/kg [1, 13]	change in vivo at 50 mg/kg [1, 14]	change in vivo at 50 mg/kg [1, 15]	change in vivo at 50 mg/kg [1, 16]	change in vivo at 50 mg/kg [1, 17]	change in vivo at 50 mg/kg [1, 18]	change in vivo at 50 mg/kg [1, 19]	change in vivo at 50 mg/kg [1, 20]	change in vivo at 50 mg/kg [1, 21]	change in vivo at 50 mg/kg [1, 22]	Kp [2]	Inhibition of CHP-induced fluorescence [3]	further results
CC1(C)CC(=O)C(C2COCCN2O)C(=O)C1 (stereo not shown) [(4), 2-(4-hydroxymorpholin-3-yl)-5,5-dimethylcyclohexane-1,3-dione]	~85%	-26.1%	-102%	-105%	-77.6%	-147%	-106%	19.2%	-68.5%	-18.8%	-94.7%	-83.8%	-34.4%	-120%	-80.7%	-4.1%	-28.7%	-84.1%	> 0.1	effective	inhibition in vivo at 50 mg/kg [1, 5]: ≥ 50%; mean % effect relative to doxorubicin alone, all parameters (Vehicle) [1, 23]: -58.1%
CC1=NN(c2ccccc2)C(=O)C1 [edaravone, reference compound]	75%	-13%	-120%	-130%	-111%	-126%	-117%	-5.2%	-49%	-44.9%	-100%	-106%	-59.2%	-110%	-102%	-22.7%	-32.9%	-77.2%	0.123	10-50%	inhibition in vivo at 50 mg/kg [1, 5]: ~75%; mean % effect relative to doxorubicin alone, all parameters (Vehicle) [1, 23]: -72.3%
CC1=NN(c2ccccc2)C(=O)C1C1COCCN1O (stereo not shown) [(11), 4-(4-hydroxymorpholin-3-yl)-3-methyl-1-phenyl-1H-pyrazol-5(4H)-one]	~65%	-23.2%	36.4%	-7.1%	-21.6%	-2.2%	-15.7%	-84.3%	-2.1%	11.6%	60.6%	9.1%	-16%	1.1%	-2.4%	-69.8%	18.9%	-64.7%	> 0.1	effective	–
